Measured values: patent US7897182B2, “Composition comprising bamboo extract and the compounds isolated therefrom showing treating and preventing activity for inflammatory and blood circulation disease” (Unigen, Inc., priority 2003, dated 2011)
≈ marks a conversion by molar mass, not a printed value. Blank lines part the entries; values can stand above or below the compound they belong to.

Experiments:
iNOS gene expression = iNOS gene expression in LPS-treated RAW 264.7 cells (RT-PCR); assay type: cell-based, Murine; details: for Inhibition of Gene expression (%) (iNOS): LPS, 24 hours
Description: To investigate the inhibiting effect on gene expression, the extract or compound of the present invention was treated to the cell and the RNA extracted therefrom was used in the RT-PCR to evaluate the quantitative gene expression. […] And RNA was extracted by conventional extraction method using Trizol reagent (Gibco BRL) to use in the following reverse transcription-polymerase chain reaction. RT-PCR was performed according to the RT reaction (25° C. 10 min, 48° C. 30 min, 95° C. 5 min, 4° C. 10 min; 1 cycle) and subsequent PCR (50° C. 2 min, 95° C. 10 min, 95° C. 15 sec, 60° C. 1 min, 40 cycles) method well known in the art. As an internal control, 18S ribosomal RNA was used.

eNOS gene expression = experiment: eNOS mRNA expression in HUVEC (quantitative PCR); assay type: cell-based, Human; details: for mRNA expression (fold), eNOS: HUVEC, control = 1
Description: (§1) RNA was isolated from HUVEC cell by Rneasy mini kit (cat#74103, Qiagen Co.) according to the manufacturer's instruction. And RT-PCT reaction was performed by using quantitative PCR method (SDS 7700, Applied biosystems Co., U.S.A.).
(§2) 5 μl of cDNA product obtained in the reverse transcription (RT) was aliquoted into each well of 96-well plate and then the mixture containing 5.6 mM MgCl2, 1×PCR buffer, 2 mM dNTP, 0.05% gelatin, 1 μM of a pair of each target gene primer or 0.16 μM of house keeping gene primer, 0.5 μM of target gene probe or 0.025 μM of housekeeping gene probe, 1.25 U of Taq polymerase was added thereto for polymerase chain reaction (PCR) (50° C. 2 min, 95° C. 10 min, 95° C. 15 sec, 60° C. 1 min, 40 cycles).
(§3) As the result, final cT value was read and calculated.

NO production = experiment: Inhibition of NO production in LPS-treated RAW 264.7 cells (Griess reagent); assay type: cell-based, Murine
Description: Murine macrophage cell line RAW 264.7 cell (ATCC, Rockville, Md., USA) were grown in DMEM (Gibco BRL Co., Ltd., USA), supplemented with 2.0 mM L-arginine, 100 μg/ml penicillin-streptomycin and 10% fetal bovine serum at 37° C. in 5% CO2 and 95% air condition in humidified incubator.
To test the inhibiting activity of bamboo extract and the compound isolated therefrom on nitric oxide (NO), which is one of inflammatory factors, the increase of NO was determined in the cells treated with extract or compound of the present invention.
200 μl of RAW 264.7 cells (1×10^6 cells/ml) were seeded onto each well of 96-well microtiter plate (Nunc, Sweden) and incubated for 3 hours in DMEM media containing 10% FBS. […]
And then 100 μl of cell supernatant of each well was transferred to new 96 well plate and 50 μl of Griess reagent (0.1% N-(1-naphtyl)ethylenediamine 2HCl, 1% sulfanilamide in 5% conc. H3PO4 in H2O) was added thereto followed by incubating for 10 mins at R.T. The absorbance was measured at 540 or 550 nm using ELISA reader (Power wave-XS, Bio-Tek, USA).

HUVEC = experiment: Cell toxicity test, modified MTT method, HUVEC; assay type: cell-based, Human
Description: The cell toxicity of tricin compound of Example 5 was tested using modified MTT method (J. Immunological Methods, 119, pp 203-210, 1989).
200 μl of HUVEC (2×10^5 cells/ml) on flat bottom 96-well microtiter plates (Nunc, Sweden) were treated with tricin prepared in various concentrations and cultured at 37° C. for 24 hours.
50 μl of MTT solution (1 mg/ml) was added to each well and incubated at 37° C. for 4 hours. And then supernatant was removed.
To detect formazan crystal, 100 μl of DMSO was also added to each well and the colorigenic analysis was performed at 550 nm using microplate reader (Power wave-XS, Bio-Tek, USA).

u-PA gene expression = experiment: u-PA mRNA expression in HUVEC (quantitative PCR); assay type: cell-based, Human; details: for mRNA expression (fold), u-PA: HUVEC, control = 1
Description: as §1, §2, §3

VEGF gene expression = experiment: VEGF mRNA expression in HUVEC (quantitative PCR); assay type: cell-based, Human; details: for mRNA expression (fold), VEGF: HUVEC, control = 1
Description: as §1, §2, §3

RAW 264.7 cells = experiment: Cell viability at the tricin concentrations of the NO test (Table 9)
[1] = test system: LDL receptor defected mouse; experiment: Blood lipid in LDL defected mouse on high fat diet; assay type: in vivo; details: lovastatin 4 mg/kg oral
Description: (§4) Eight-weeks old male LDL receptor defected mouse accumulated to high fat feed were divided into two dose administration groups and one high dosing group of which group consist of six mice per group, Injectable distilled water was used as a negative control group, lovastain well known to be as an atheriosclerosis treating agent was administrated in an amount of 4 mg/kg per body weight as a positive control group, Bamboo was administrated to two treatment group in an amount of 50 and 100 mg/kg per body weight respectively, and one high dosing treatment group in an amount of 500 mg/kg per body weight for 20 weeks by way of compulsory oral administration after weighing the body weight twice a day (See Table 6).
And then blood plasma was isolated by centrifugation at the speed of 11,000 g for 10 minutes and left alone at −70° C. before use. The value of blood lipid was determined by three categories i.e., TC (Total cholesterol), HDL-C (High-density lipoprotein cholesterol) and TG (Triglycerides) at KRIBB in Korea.

[2] = test system: LDL receptor defected mouse; experiment: Arteriosclerosis lesion area (Oil red O, aortic valve) in LDL defected mouse; assay type: in vivo; details: positive control, lovastatin 4 mg/kg
Description: During the experiment, the environment of the cage was maintained to the temperature of 23±2° C. and the relative humidity of […] under the artificial lamp for 12 hours, and less than five mice were bred in each mouse cage providing with free access to water (disinfected distilled water) and normal fatty feed (Harlan 2018S, Indianapolis USA).
as §4, with “6). […]” for “6).”
The calculation of lesion area was performed by staining the lesion formed at the position between 3rd cervical […] and aortic valve and photocopying and then the lesion area was calculated by using computer-assisted morphometry (TDI microscope Image Analyzer, USA) comparing with control group.

[3] = Mus musculus, RAW264.7, read-out: NO inhibition rate (%)

IC50 (iNOS gene expression; Mus musculus, RAW264.7, calculated from the expression data, read-out: IC50 (μg/ml) on iNOS gene expression): 5.3 µg/mL (≈ 14.4 µM)
Compound: COc1cc(/C=C/C(=O)CC(=O)/C=C/c2ccc(O)c(OC)c2)ccc1O [Curcumin, curcumin]
Comparative iNOS expression (% of control, DMSO) (iNOS gene expression; 0.032 μg/ml): 80.5 % of control
Inhibition of Gene expression (%) (iNOS) (iNOS gene expression; 0.032 μg/ml): 40%
Comparative iNOS expression (% of control, DMSO) (iNOS gene expression; 0.16 μg/ml): 75.7 % of control
Inhibition of Gene expression (%) (iNOS) (iNOS gene expression; 0.16 μg/ml): 40%
Comparative iNOS expression (% of control, DMSO) (iNOS gene expression; 0.8 μg/ml): 64.4 % of control
Inhibition of Gene expression (%) (iNOS) (iNOS gene expression; 0.8 μg/ml): 40%
Comparative iNOS expression (% of control, DMSO) (iNOS gene expression; 4 μg/ml): 49.9 % of control
Inhibition of Gene expression (%) (iNOS) (iNOS gene expression; 4 μg/ml): 90%
Inhibition of Gene expression (%) (iNOS) (iNOS gene expression; 12.5 μg/ml): 90%
Comparative iNOS expression (% of control, DMSO) (iNOS gene expression; 20 μg/ml): 1.3 % of control
concentration at which iNOS gene expression is inhibited by 90% (iNOS gene expression; real time-gene expression analysis): 4 µg/mL

Compound: COc1cc(-c2cc(=O)c3c(O)cc(O)cc3o2)cc(OC)c1O [tricin]
expression of eNOS in HUVEC, in words (eNOS gene expression): increased
mRNA expression (fold), eNOS (eNOS gene expression; tricin 0.5 μg/ml): 3.024 fold
mRNA expression (fold), eNOS (eNOS gene expression; tricin 1.0 μg/ml): 4.711 fold
mRNA expression (fold), eNOS (eNOS gene expression; tricin 5.0 μg/ml): 0.452 fold
NO inhibition, in words (NO production; 25, 12.5 and 6.5 μg/ml): strong NO inhibition rate
inhibition at 1.625 µg/mL (NO production; [3]): 25.9 ± 0.006%
inhibition at 3.25 µg/mL (NO production; [3]): 38.1 ± 0.005%
inhibition at 6.5 µg/mL (NO production; [3]): 52 ± 0.015%
inhibition at 25 µg/mL (NO production; [3]): 74.6 ± 0.009%
inhibition at 50 µg/mL (NO production; [3]): 49.7 ± 0.007%
inhibition at 12.5 µg/mL (NO production; Mus musculus, RAW264.7, tricin 12.5 μg/ml, read-out: NO inhibition rate (%)): 71.2 ± 0.003%
cellular toxicity (HUVEC; HUVEC, 5 μg/ml, 24 hours, MTT): 51%
expression of u-PA gene in HUVEC, in words (u-PA gene expression): increased
mRNA expression (fold), u-PA (u-PA gene expression; tricin 0.5 μg/ml): 1.619 fold
mRNA expression (fold), u-PA (u-PA gene expression; tricin 1.0 μg/ml): 1.103 fold
mRNA expression (fold), u-PA (u-PA gene expression; tricin 5.0 μg/ml): 2.962 fold
expression of VEGF in HUVEC, in words (VEGF gene expression): increased
mRNA expression (fold), VEGF (VEGF gene expression; tricin 0.5 μg/ml): 2.046 fold
mRNA expression (fold), VEGF (VEGF gene expression; tricin 1.0 μg/ml): 1.469 fold
mRNA expression (fold), VEGF (VEGF gene expression; tricin 5.0 μg/ml): 1.545 fold
toxicity at the active concentrations, in words (RAW 264.7 cells; 25, 12.5 and 6.5 μg/ml): no toxicity
Cell viability (%) (RAW 264.7 cells; tricin 1.625 μg/ml): 126%
Cell viability (%) (RAW 264.7 cells; tricin 3.25 μg/ml): 99%
Cell viability (%) (RAW 264.7 cells; tricin 6.5 μg/ml): 96%
Cell viability (%) (RAW 264.7 cells; tricin 12.5 μg/ml): 92%
Cell viability (%) (RAW 264.7 cells; tricin 25 μg/ml): 80%
Cell viability (%) (RAW 264.7 cells; tricin 50 μg/ml): 49%

Compound: CC[C@H](C)C(=O)O[C@H]1C[C@@H](C)C=C2C=C[C@H](C)[C@H](CC[C@@H]3C[C@@H](O)CC(=O)O3)[C@H]21 [Lovastatin, lovastatin]
HDL-C [1]: 25.00 ± 7.07
LDL-C [1]: 3485.00 ± 304.06
TC [1]: 3750.00 ± 42.43
TG [1]: 300.00 ± 14.14
inhibition of the formation of arteriosclerosis compared with control group [2]: about 47%

Compound: O=C(O)/C=C/c1ccc(O)cc1 [p-coumaric acid]
cellular toxicity, in words (HUVEC): no cellular toxicity
